Publication PMC9928189 (ACS catalysis, 2022)
Changes are numbered by the printed parent chain.

Assays:
Assay in all cases: X-ray crystal structure
Assay type in all cases: binding
MroM-A1 = target: T1, MroM-A1 (Mycena rosella, UniProt A0A9X9ZA27); details: 1.79 Å; core peptide A1 fused and N-methylated
T1 sequence (A0A9X9ZA27 4-400): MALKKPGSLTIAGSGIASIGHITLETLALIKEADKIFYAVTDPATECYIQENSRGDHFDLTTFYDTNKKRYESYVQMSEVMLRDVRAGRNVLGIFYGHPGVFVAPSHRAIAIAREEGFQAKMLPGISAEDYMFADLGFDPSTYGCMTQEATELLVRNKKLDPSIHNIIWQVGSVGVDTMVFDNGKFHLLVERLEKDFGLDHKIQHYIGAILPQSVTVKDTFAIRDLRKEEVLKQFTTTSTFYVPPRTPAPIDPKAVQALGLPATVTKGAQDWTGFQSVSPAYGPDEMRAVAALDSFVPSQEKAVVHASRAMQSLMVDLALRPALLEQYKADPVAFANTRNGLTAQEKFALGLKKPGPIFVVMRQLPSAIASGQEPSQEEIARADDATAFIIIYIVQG

MroM-A2 = target: T2, MroM-A2 (Mycena rosella, UniProt A0A9X9ZA29); details: 1.86 Å; core peptide A2 fused and N-methylated
T2 sequence (A0A9X9ZA29 4-400): T1 sequence (A0A9X9ZA27 4-400) with F389L, I390A, I391L, I392V, Y393V, I394V, V395I, Q396V, G397Q

MroM-CspL = target: T3, MroM-CspL (Mycena rosella, UniProt A0A9X9ZA30); details: 1.93 Å; cyclosporin-like core fused and N-methylated
T3 sequence (A0A9X9ZA30 4-402): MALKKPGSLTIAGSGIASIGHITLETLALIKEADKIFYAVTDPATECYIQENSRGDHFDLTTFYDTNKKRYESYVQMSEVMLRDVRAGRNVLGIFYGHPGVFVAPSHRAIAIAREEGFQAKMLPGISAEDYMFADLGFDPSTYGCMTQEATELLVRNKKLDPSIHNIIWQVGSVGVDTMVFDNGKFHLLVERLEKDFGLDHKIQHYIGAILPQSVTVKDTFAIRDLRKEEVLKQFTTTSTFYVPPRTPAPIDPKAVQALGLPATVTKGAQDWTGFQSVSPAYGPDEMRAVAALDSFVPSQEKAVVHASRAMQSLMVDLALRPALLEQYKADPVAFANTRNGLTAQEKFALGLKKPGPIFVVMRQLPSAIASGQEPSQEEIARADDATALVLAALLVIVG

## Nc1ncnc2c1ncn2[C@@H]1O[C@H](CSCC[C@H](N)C(=O)O)[C@@H](O)[C@H]1O [S-adenosylhomocysteine]
MroM-A1
  X-ray crystal structure: Each structure was determined in complex with product S-adenosylhomocysteine (SAH)
MroM-A2
  X-ray crystal structure: Each structure was determined in complex with product S-adenosylhomocysteine (SAH)
MroM-CspL
  X-ray crystal structure: Each structure was determined in complex with product S-adenosylhomocysteine (SAH)
